Non-standard residues stand in square brackets, D forms with d. Residues, ends and D or L forms follow the SMILES beside them. No end group written: not given here.
Tests used:
Format in all cases: cell-based
[1] = system: Escherichia coli ATCC 25922
Method: The MICs of the designed cationic peptides against Escherichia coli ATCC 25,922 strains were determined by the broth microdilution method, as described by Hancock et al.. All MIC evaluations were performed using Luria Bertani (LB) medium. Briefly, a range of each peptide concentrations (100 µg/mL, 50 µg/mL, 25 µg/mL, 12.5 µg/mL, 6.25 µg/mL, 3.125 µg/mL) was prepared by serial dilution in NaCl-depleted LB medium and added to an equal volume (250 µl) of exponentially grown bacterial culture, so that final bacterial suspension contained 5 × 10^5 CFU/mL. The samples were incubated in 2 mL polypropylene microtubes at 37 °C overnight at 300 rpm. The MIC was defined as the concentration at which no microbial growth was detected spectrophotometrically, via readings of optical density (OD) at 600 nm (Biotek ELX800 microplate reader). Growth medium containing only bacterial cells was used as a negative control. Each MIC test was carried out in two replicates and repeated three times.

[2] = system: E. asburiae/cloacae St. L P23; experiment: organism not typed
From the text: (§1) The following strains were used: P. aeruginosa (ATCC 27,853 and resistant strains: J4228 (R: Meropenem), BB2013-100 (FQR)); A. baumannii (Josh 28 and resistant strain Josh 230 (OXA-48); E. cloacae (resistant strains: BB2012-181(R: Meropenem), BB2013-32 (FQR)); E. aerogenes (resistant strain St. L P63 (NDM-1), E. asburiae/cloacae (resistant strain St. L P23 (NDM-1), K. pneumonia (J3702 and resistant strains: BB2009-209 (KPC-2), Oschner KP-1), Escherichia coli (BW25113 (7636) and resistant strains: JW55034 (11430) (Tol neg), BB2013-30 (R:carbapenem), ARLG-1012 (NDM)). Susceptibility testing was performed using non-cation adjusted MHB broth and polypropylene plates. Testing was also done in the presence and absence of acetic acid and BSA.

E. aerogenes St. L P63 = experiment: microbe, parasite or virus in culture; conditions: St. L P63
From the text: as §1

E. coli JW55034 (11430) = experiment: microbe, parasite or virus in culture; conditions: phenotype Tol neg, non-cation adjusted MHB broth, polypropylene plates, meropenem by standard CLSI method
From the text: as §1

E. coli BB2013-30 = experiment: microbe, parasite or virus in culture; conditions: BB2013-30
From the text: as §1

K. pneumoniae J3702 = experiment: microbe, parasite or virus in culture; conditions: J3702
From the text: as §1

K. pneumoniae BB2009-209 = experiment: microbe, parasite or virus in culture; conditions: BB2009-209
From the text: as §1

P. aeruginosa BB2013-100 = experiment: microbe, parasite or virus in culture; conditions: BB2013-100
From the text: as §1

P. aeruginosa J4228 = experiment: microbe, parasite or virus in culture; conditions: J4228
From the text: as §1

E. coli ARLG-1012 = experiment: microbe, parasite or virus in culture; conditions: ARLG-1012
From the text: as §1

A. baumannii Josh 230 = experiment: microbe, parasite or virus in culture; conditions: Josh 230
From the text: as §1

A. baumannii Josh 28 = experiment: microbe, parasite or virus in culture; conditions: Josh 28
From the text: as §1

E. coli BW25113 (7636) = experiment: microbe, parasite or virus in culture; conditions: BW25113
From the text: as §1

E. cloacae BB2013-32 = experiment: microbe, parasite or virus in culture; conditions: BB2013-32
From the text: as §1

[3] = system: K. pneumoniae Oschner KP-1; experiment: microbe, parasite or virus in culture; conditions: Oschner KP-1
From the text: as §1

P. aeruginosa ATCC 27853 = experiment: microbe, parasite or virus in culture; conditions: ATCC 27853
From the text: as §1

E. cloacae BB2012-181 = experiment: microbe, parasite or virus in culture; conditions: BB2012-181
From the text: as §1

For KFRKFGKQVWVRL-NH2 [SP8], the “MIC At NaCl” value [1] was 12.5 to 25 µg/mL and the “MIC Without NaCl” value [1] was 3.125 to 6.25 µg/mL.

With `CC[C@@H](C)[C@@H](NC(=O)[C@@H](Cc1c[nH]c2ccccc12)NC(=O)[C@H](N)CCCNC(=N)N)C(=O)N[C@H](CCCNC(=N)N)C(=O)N[C@H](Cc1c[nH]c2ccccc12)C(=O)N[C@@H](C(=O)N[C@H](Cc1c[nH]c2ccccc12)C(=O)N[C@H](CCCNC(=N)N)C(=O)N[C@H](CCCCN)C(=O)N[C@H](CCCCN)C(=O)N[C@H](CC(C)C)C(=O)N[C@H](CCCNC(=N)N)C(N)=O)C(C)C` [SP15D] (H-[dR][dW][dI][dR][dW][dV][dW][dR][dK][dK][dL][dR]-NH2) the “MIC At NaCl” value [1] was 0.78 to 1.56 µg/mL and the “MIC Without NaCl” value [1] was 0.39 to 0.78 µg/mL.

For KVWSRLRKIFSTR-NH2 [SP9], the “MIC At NaCl” value [1] was 6.25 to 12.5 µg/mL and the “MIC Without NaCl” value [1] was 3.125 to 6.25 µg/mL.

With IRPAKLRWFKKIK-NH2 [SP5] the “MIC At NaCl” value [1] was greater than 100 µg/mL and the “MIC Without NaCl” value [1] was 12.5 to 25 µg/mL.

With HFKIRKRFVKKLV-NH2 [SP13] the “MIC At NaCl” value [1] was greater than 100 µg/mL and the “MIC Without NaCl” value [1] was 6.25 to 12.5 µg/mL.

Molecule GWAKLITKAIKKI-NH2 [SP3] has an MIC [2] of 32 µg/mL, an MIC (E. aerogenes St. L P63) of 16 µg/mL and an MIC (E. coli JW55034 (11430)) of 4 µg/mL. For the same molecule, the MIC (E. coli BB2013-30) was 8 µg/mL, the MIC (K. pneumoniae J3702) was 16 µg/mL and the MIC (K. pneumoniae BB2009-209) was greater than 32 µg/mL. It also gave an MIC (P. aeruginosa BB2013-100) of 32 µg/mL, an MIC (P. aeruginosa J4228) of 16 µg/mL and an MIC (E. coli ARLG-1012) of 4 µg/mL. The MIC (A. baumannii Josh 230) was 16 µg/mL, the MIC (A. baumannii Josh 28) was 4 µg/mL and the MIC (E. coli BW25113 (7636)) was 4 µg/mL. The MIC (E. cloacae BB2013-32) was 16 µg/mL, the MIC [3] was greater than 32 µg/mL and the MIC (P. aeruginosa ATCC 27853) was 8 µg/mL. For the same molecule, the MIC (E. cloacae BB2012-181) was 16 µg/mL, the “MIC At NaCl” value [1] was 25 to 50 µg/mL and the “MIC Without NaCl” value [1] was 12.5 to 25 µg/mL.

For IRRRIRLIVRRQI-NH2 [SP12], the “MIC At NaCl” value [1] was 12.5 to 25 µg/mL and the “MIC Without NaCl” value [1] was 1.56 to 3.125 µg/mL.

With AKVLKISRRAFRK-NH2 [SP10] the “MIC At NaCl” value [1] was greater than 100 µg/mL and the “MIC Without NaCl” value [1] was 25 to 50 µg/mL.

GIKFFLKKLKKHI-NH2 [SP4] gave an MIC [2] greater than 32 µg/mL, an MIC (E. aerogenes St. L P63) of 16 µg/mL and an MIC (E. coli JW55034 (11430)) of 8 µg/mL. The MIC (E. coli BB2013-30) was 16 µg/mL, the MIC (K. pneumoniae J3702) was 32 µg/mL and the MIC (K. pneumoniae BB2009-209) was greater than 32 µg/mL. The MIC (P. aeruginosa BB2013-100) was 32 µg/mL, the MIC (P. aeruginosa J4228) was 16 µg/mL and the MIC (E. coli ARLG-1012) was 8 µg/mL. The MIC (A. baumannii Josh 230) was 4 µg/mL, the MIC (A. baumannii Josh 28) was 2 µg/mL and the MIC (E. coli BW25113 (7636)) was 8 µg/mL. It also gave an MIC (E. cloacae BB2013-32) of 16 µg/mL, an MIC [3] greater than 32 µg/mL and an MIC (P. aeruginosa ATCC 27853) of 8 µg/mL. For the same molecule, the MIC (E. cloacae BB2012-181) was greater than 32 µg/mL, the “MIC At NaCl” value [1] was 25 to 50 µg/mL and the “MIC Without NaCl” value [1] was 6.25 to 12.5 µg/mL.

From article PMC6631481, “De Novo Design and In Vitro Testing of Antimicrobial Peptides against Gram-Negative Bacteria” (Pharmaceuticals, 2019)
